Here are results for one compound from patent publication US6825205B2 (priority 2002, dated 2004).

Data set [1] addresses μ opioid receptor (μ membrane protein) (Homo sapiens, UniProt P35372). Nature of the data set: biochemical.
The next data set can be described thus: in vivo. The settings on record: Sprague-Dawley, rat, ip, 10 mg/kg.
For data set [2] the following is noted: rat, in vivo.

μ opioid receptor (μ membrane protein), sequence (P35372 whole entry, species assumed): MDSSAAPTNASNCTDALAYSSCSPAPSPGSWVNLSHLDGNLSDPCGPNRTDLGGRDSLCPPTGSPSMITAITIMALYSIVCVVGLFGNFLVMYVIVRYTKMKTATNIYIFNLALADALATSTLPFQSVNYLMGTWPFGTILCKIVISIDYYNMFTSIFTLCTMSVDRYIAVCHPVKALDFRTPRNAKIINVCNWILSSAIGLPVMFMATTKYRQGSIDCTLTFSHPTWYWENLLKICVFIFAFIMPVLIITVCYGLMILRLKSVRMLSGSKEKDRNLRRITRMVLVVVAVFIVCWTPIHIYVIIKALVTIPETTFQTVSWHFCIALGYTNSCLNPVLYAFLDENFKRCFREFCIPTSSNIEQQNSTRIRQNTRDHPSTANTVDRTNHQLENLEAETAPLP

A word on the EC50: it is the concentration that produces a half-maximal response. Low values mean an effect from little substance, high ones a need for much substance. For the compound `C[N+]1(C)CC[C@]23c4c5ccc(O)c4O[C@H]2C(=O)CC[C@H]3[C@H]1C5` [N-methylhydromorphone, N-methylhydromorphonium iodide], in data set [1], the EC50 was determined as 817 ± 83 nM and the “GTP-γ-S Activity/Efficacy % DAMGO” value is listed as 29 ± 1 % DAMGO. This compound also gave a Kp in “in vivo” of 0.02 ± 0.01. Moreover, the “Penetration of the CNS / blood-brain barrier” value in data set [2] is recorded as “does not penetrate the CNS”.
